In patent publication US20070166415A1, “Safe medicine for treating and preventing cancer and method of use” (priority 2006, published 2007):

What was measured:
[1] = Metabolism (organ and blood radioactivity) of [^3H]-HHT in P388 mice; format: in vivo
Protocol: Animals: Adult DBA/2J male mice, 6 to 8 weeks old. All animals weighed approximately 25 g when used in experiments. Each member of which received identical dosed (i.p.) of HHT. Tumor: P388 leukemic cells induced in mice by inoculation with L1210 or P388 leukemic cells (1.0×10^5). After P388 induced in mice 5 days, 1 mg/kg of [^3H]-HHT (100 μC/mg) was injected to mice. […] Mice were killed at 1, 3, 6 and 24 hours after injection of [^3H]-HHT. The key data of HHT in metabolism process are determined counts per minute (CPM) of [^3H]-HHT in organs. CPM is determined by liquid scintillation counting (LSC). The methods of LSC combined with radioactive of [^3H]-HHT can be determined using a tracer of HHT in organs. After killed animals, organs and blood were obtained from P388 mice. […] Other processes are similar to the standard method.

[2] = dog, in vivo
Source text: Twenty normal adult dogs which weight approximately 10 kg[…] used in experiments.
Most deaths were caused by cardiac dysfunction.

[3] = tested on: salmonella typhimurium TA100; test: Salmonella mutagenicity test, TA100; format: cell-based
Protocol: (§1) Methods for detecting carcinogens and mutagens with the salmonellia mutagenicity test are highly efficient in detecting carcinogens and mutagens. Major carcinogens tested have been detected as mutagens. Salmonella mutagenicity assay is very sensitive and simply test for detecting mutagens and carcinogens.
(§2) Mutagenicity assays were carried out at least in triplicate.

[4] = tested on: salmonella typhimurium TA98; test: Salmonella mutagenicity test, TA98; format: cell-based
Protocol: as §1, §2

[5] = tested on: salmonella typhimurium TA97; test: Salmonella mutagenicity test, TA97; format: cell-based
Protocol: as §1, §2

For `COC(=O)C[C@](O)(CCCC(C)(C)O)C(=O)O[C@@H]1C(OC)=C[C@]23CCCN2CCc2cc4c(cc2[C@H]13)OCO4` [HHT, Homoharringtonine], the “CPM of [^3H]-HHT, Bone” value ([1]; 1 hour after 1 mg/kg i.p.) was 500 CMP/mg organ, the “CPM of [^3H]-HHT, Brain” value ([1]; 1 hour after 1 mg/kg i.p.) was 499 CMP/mg organ and the “CPM of [^3H]-HHT, Contents of intestine” value ([1]; 1 hour after 1 mg/kg i.p.) was 3323 CMP/mg organ. For the same compound, the “CPM of [^3H]-HHT, Contents of stomach” value ([1]; 1 hour after 1 mg/kg i.p.) was 6821 CMP/mg organ, the “CPM of [^3H]-HHT, Heart” value ([1]; 1 hour after 1 mg/kg i.p.) was 1403 CMP/mg organ and the “CPM of [^3H]-HHT, Intestine” value ([1]; 1 hour after 1 mg/kg i.p.) was 1638 CMP/mg organ. The “CPM of [^3H]-HHT, Kidney” value ([1]; 1 hour after 1 mg/kg i.p.) was 6501 CMP/mg organ, the “CPM of [^3H]-HHT, Liver” value ([1]; 1 hour after 1 mg/kg i.p.) was 4145 CMP/mg organ and the “CPM of [^3H]-HHT, Lung” value ([1]; 1 hour after 1 mg/kg i.p.) was 2100 CMP/mg organ. The “CPM of [^3H]-HHT, Spleen” value ([1]; 1 hour after 1 mg/kg i.p.) was 2828 CMP/mg organ, the “CPM of [^3H]-HHT, Stomach” value ([1]; 1 hour after 1 mg/kg i.p.) was 1626 CMP/mg organ and the “CPM of [^3H]-HHT, Bone” value ([1]; 3 hours after 1 mg/kg i.p.) was 560 CMP/mg organ. The “CPM of [^3H]-HHT, Brain” value ([1]; 3 hours after 1 mg/kg i.p.) was 646 CMP/mg organ, the “CPM of [^3H]-HHT, Contents of intestine” value ([1]; 3 hours after 1 mg/kg i.p.) was 7215 CMP/mg organ and the “CPM of [^3H]-HHT, Contents of stomach” value ([1]; 3 hours after 1 mg/kg i.p.) was 84375 CMP/mg organ. For the same compound, the “CPM of [^3H]-HHT, Heart” value ([1]; 3 hours after 1 mg/kg i.p.) was 1800 CMP/mg organ, the “CPM of [^3H]-HHT, Intestine” value ([1]; 3 hours after 1 mg/kg i.p.) was 3288 CMP/mg organ and the “CPM of [^3H]-HHT, Kidney” value ([1]; 3 hours after 1 mg/kg i.p.) was 3121 CMP/mg organ. The “CPM of [^3H]-HHT, Liver” value ([1]; 3 hours after 1 mg/kg i.p.) was 6718 CMP/mg organ, the “CPM of [^3H]-HHT, Lung” value ([1]; 3 hours after 1 mg/kg i.p.) was 2427 CMP/mg organ and the “CPM of [^3H]-HHT, Spleen” value ([1]; 3 hours after 1 mg/kg i.p.) was 2426 CMP/mg organ. For the same compound, the “CPM of [^3H]-HHT, Stomach” value ([1]; 3 hours after 1 mg/kg i.p.) was 2321 CMP/mg organ, the “CPM of [^3H]-HHT, Bone” value ([1]; 6 hours after 1 mg/kg i.p.) was 505 CMP/mg organ and the “CPM of [^3H]-HHT, Brain” value ([1]; 6 hours after 1 mg/kg i.p.) was 793 CMP/mg organ. The “CPM of [^3H]-HHT, Contents of intestine” value ([1]; 6 hours after 1 mg/kg i.p.) was 6250 CMP/mg organ, the “CPM of [^3H]-HHT, Contents of stomach” value ([1]; 6 hours after 1 mg/kg i.p.) was 100719 CMP/mg organ and the “CPM of [^3H]-HHT, Heart” value ([1]; 6 hours after 1 mg/kg i.p.) was 1193 CMP/mg organ. For the same compound, the “CPM of [^3H]-HHT, Intestine” value ([1]; 6 hours after 1 mg/kg i.p.) was 2475 CMP/mg organ, the “CPM of [^3H]-HHT, Kidney” value ([1]; 6 hours after 1 mg/kg i.p.) was 3501 CMP/mg organ and the “CPM of [^3H]-HHT, Liver” value ([1]; 6 hours after 1 mg/kg i.p.) was 4109 CMP/mg organ. For the same compound, the “CPM of [^3H]-HHT, Lung” value ([1]; 6 hours after 1 mg/kg i.p.) was 1788 CMP/mg organ, the “CPM of [^3H]-HHT, Spleen” value ([1]; 6 hours after 1 mg/kg i.p.) was 2198 CMP/mg organ and the “CPM of [^3H]-HHT, Stomach” value ([1]; 6 hours after 1 mg/kg i.p.) was 3703 CMP/mg organ. For the same compound, the “reversibility of toxicities observed” value [2] was “completely reversible upon discontinuation of treatment”, the “Number of His^+revertants/plate” value ([3]; TA100 +S, 0.1 μg/plate) was 158 revertants/plate and the “Number of His^+revertants/plate” value ([3]; TA100 +S, 1 μg/plate) was 152 revertants/plate. The “Number of His^+revertants/plate” value ([3]; TA100 +S, 10 μg/plate) was 165 revertants/plate, the “Number of His^+revertants/plate” value ([3]; TA100 +S, 100 μg/plate) was 160 revertants/plate and the “Number of His^+revertants/plate” value ([3]; TA100 −S, 0.1 μg/plate) was 148 ± 12 revertants/plate. The “Number of His^+revertants/plate” value ([3]; TA100 −S, 1 μg/plate) was 140 ± 13 revertants/plate, the “Number of His^+revertants/plate” value ([3]; TA100 −S, 10 μg/plate) was 162 ± 17 revertants/plate and the “Number of His^+revertants/plate” value ([3]; TA100 −S, 100 μg/plate) was 158 ± 15 revertants/plate. For the same compound, the “Number of His^+revertants/plate” value ([4]; TA98 +S, 0.1 μg/plate) was 34 ± 4 revertants/plate, the “Number of His^+revertants/plate” value ([4]; TA98 +S, 1 μg/plate) was 32 ± 4 revertants/plate and the “Number of His^+revertants/plate” value ([4]; TA98 +S, 10 μg/plate) was 36 ± 3 revertants/plate. The “Number of His^+revertants/plate” value ([4]; TA98 +S, 100 μg/plate) was 34 ± 4 revertants/plate, the “Number of His^+revertants/plate” value ([4]; TA98 −S, 0.1 μg/plate) was 29 ± 3 revertants/plate and the “Number of His^+revertants/plate” value ([4]; TA98 −S, 1 μg/plate) was 30 ± 3 revertants/plate. The “Number of His^+revertants/plate” value ([4]; TA98 −S, 10 μg/plate) was 38 ± 4 revertants/plate, the “Number of His^+revertants/plate” value ([4]; TA98 −S, 100 μg/plate) was 32 ± 4 revertants/plate and the “Number of His^+revertants/plate” value ([5]; TA97 +S, 0.1 μg/plate) was 145 ± 14 revertants/plate. For the same compound, the “Number of His^+revertants/plate” value ([5]; TA97 +S, 1 μg/plate) was 150 ± 14 revertants/plate, the “Number of His^+revertants/plate” value ([5]; TA97 +S, 10 μg/plate) was 165 ± 16 revertants/plate and the “Number of His^+revertants/plate” value ([5]; TA97 +S, 100 μg/plate) was 160 ± 17 revertants/plate. The “Number of His^+revertants/plate” value ([5]; TA97 −S, 0.1 μg/plate) was 120 ± 10 revertants/plate, the “Number of His^+revertants/plate” value ([5]; TA97 −S, 1 μg/plate) was 130 ± 11 revertants/plate and the “Number of His^+revertants/plate” value ([5]; TA97 −S, 10 μg/plate) was 160 ± 16 revertants/plate. The “Number of His^+revertants/plate” value ([5]; TA97 −S, 100 μg/plate) was 150 ± 16 revertants/plate.
